Consider two compounds from US9241913B2, “Polysialic acid-based N-trimethyl chitosan gel nanoparticles for systemic drug delivery” (Syracuse University, priority 2011, dated 2016).

The test system of data set [1] is MH7A rheumatoid arthritis synovial fibroblast cell line. As to the kind of experiment: WST-8 cytotoxicity assay. In kind it is cell-based. The note with it: MH7A cells, 24 hours incubation, WST-8 absorbance at 450 nm. The method, then:
WST-8 assay (Cayman Chemical Company, Ann Arbor, Mich.) was conducted on the MH7A rheumatoid arthritis synovial fibroblast cell line, following the manufacturer's instructions, to assess the cytotoxicity of the PSA-TMC nanoparticles. NADH produced within the mitochondria reduces WST-8 tetrazolium salt to formazan dye, which can be quantified by absorbance measurements at 450 nm. Cells were seeded into 96-well cell culture plate (2×10^4 cells per well) and cultured for 24 hr at 37° C., 5% CO2. PSA-TMC (0.5:1) was added to yield a series of concentrations from 0.3125 to ˜20 mg/mL, and the cultures were incubated for an additional 24 hours. 10 μL of WST-8 solution were added to each well. After a 90 minute incubation period, absorbance was measured with a Synergy 2 multimode microplate reader (BioTek Instruments, Winooski, Vt.) at 450 nm. The cytotoxicities of TMC TPP and alone were also evaluated following the above procedure. Untreated MH7A synovial fibroblast cultures were used as controls. Relative absorbance versus concentration was plotted for each set of additives, and a four parameter logistic, constructed with Kaleidagraph software, was used to fit the data to determine the IC50 values. Each experiment was repeated independently at least two times.

Data set [2] relates to rheumatoid arthritis. The note with it: cited from earlier work.
The conditions of data set [3]: orally administered, patients; cited from earlier work.

Regarding `O=P(O)(O)OP(=O)(O)OP(=O)(O)O` [TPP, sodium tripolyphosphate], the IC50 in data set [1] worked out at 220 ± 40 µg/mL.
Take `CN(Cc1cnc2nc(N)nc(N)c2n1)c1ccc(C(=O)N[C@@H](CCC(=O)O)C(=O)O)cc1` [methotrexate, Methotrexate]: the “reduction in the risk of early mortality” value in data set [2] (RA patients treated with methotrexate) is listed as 60%. In data set [2] (individuals prescribed methotrexate), the “reduction in deaths due to RA related cardiovascular disease” value was 70%. For the same compound, in data set [2] (over 55 months of treatment, rheumatoid arthritis), the “patients who developed severe fibrosis or cirrhosis” value is listed as 3%. In addition, the elimination half-lives result in data set [3] is reported as “six to fifty-five”.

One may read the IC50 as the concentration that inhibits the measured activity by half.
